Measured values from the supplement of paper PMC10307832.

Experiments:
Assay in all cases: relative viability (nuclei count vs DMSO), 5 days (fraction); higher = more cells survive
VX-702 + Foretinib = compound: NC(=O)c1ccc(N(C(N)=O)c2c(F)cccc2F)nc1-c1ccc(F)cc1F [VX-702] + COc1cc2c(Oc3ccc(NC(=O)C4(C(=O)Nc5ccc(F)cc5)CC4)cc3F)ccnc2cc1OCCCN1CCOCC1 [Foretinib] (partner 0.25 µM)
Outline: (§1)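 The day after seeding in 1536-well plates, lung cancer cell lines were treated by pin tool with a single drug, or with a fixed anchor-drug dose together with five library-drug doses (not always all listed) in √10 steps. After 5 days, a combined fix-and-stain solution (final 0.05% Triton X-100, 1% formaldehyde, 1 ug/ml Hoechst) was added. Nuclei counted on 4× images gave relative viability as treated counts over vehicle counts, reported as the median of duplicate plates.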

Dabrafenib + Alpelisib = compound: CC(C)(C)c1nc(-c2cccc(NS(=O)(=O)c3c(F)cccc3F)c2F)c(-c2ccnc(N)n2)s1 [Dabrafenib] + Cc1nc(NC(=O)N2CCC[C@H]2C(N)=O)sc1-c1ccnc(C(C)(C)C(F)(F)F)c1 [Alpelisib] (partner 2 µM)
Outline: as §1

Dabrafenib + Dasatinib = compound: CC(C)(C)c1nc(-c2cccc(NS(=O)(=O)c3c(F)cccc3F)c2F)c(-c2ccnc(N)n2)s1 [Dabrafenib] + Cc1nc(Nc2ncc(C(=O)Nc3c(C)cccc3Cl)s2)cc(N2CCN(CCO)CC2)n1 [Dasatinib] (partner 0.075 µM)
Outline: as §1

VX-702 + Phenformin = compound: NC(=O)c1ccc(N(C(N)=O)c2c(F)cccc2F)nc1-c1ccc(F)cc1F [VX-702] + N=C(N)NC(=N)NCCc1ccccc1 [Phenformin] (partner 250 µM)
Outline: as §1

| Cell Line | relative viability (VX-702 + Foretinib; first compound 0.02 µM) | relative viability (VX-702 + Foretinib; first compound 0.2 µM) | relative viability (VX-702 + Foretinib; first compound 0.6325 µM) | relative viability (VX-702 + Foretinib; first compound 2 µM) | relative viability (Dabrafenib + Alpelisib; first compound 0.009487 µM) | relative viability (Dabrafenib + Alpelisib; first compound 0.03 µM) | relative viability (Dabrafenib + Alpelisib; first compound 0.3 µM) | relative viability (Dabrafenib + Dasatinib; first compound 0.003 µM) | relative viability (Dabrafenib + Dasatinib; first compound 0.009487 µM) | relative viability (Dabrafenib + Dasatinib; first compound 0.03 µM) | relative viability (Dabrafenib + Dasatinib; first compound 0.09487 µM) | relative viability (Dabrafenib + Dasatinib; first compound 0.3 µM) | relative viability (VX-702 + Phenformin; first compound 0.02 µM) | relative viability (VX-702 + Phenformin; first compound 0.2 µM) | relative viability (VX-702 + Phenformin; first compound 0.6325 µM) | relative viability (VX-702 + Phenformin; first compound 2 µM) | relative viability (Dabrafenib + Alpelisib; first compound 0.003 µM) | relative viability (Dabrafenib + Alpelisib; first compound 0.09487 µM) |
| --- | --- | --- | --- | --- | --- | --- | --- | --- | --- | --- | --- | --- | --- | --- | --- | --- | --- | --- |
| LCLC-97TM1 | 0.836 | 0.923 | 0.938 | 0.991 | 0.228 | 0.303 | 0.258 | 0.574 | 0.847 | 0.843 | 0.36 | 0.534 | 0.439 | 0.434 | 0.43 | 0.482 | – | – |
| LCLC-103H | 0.71 | 0.702 | 0.534 | 0.881 | 1.16 | 0.912 | 0.972 | 0.495 | 0.526 | 0.513 | 0.447 | 0.379 | 0.344 | 0.344 | 0.316 | 0.325 | 0.726 | 0.853 |
| LK-2 | 0.985 | 1.21 | 1.08 | 1.11 | 1.14 | – | 1.13 | 0.208 | 0.274 | – | 0.285 | 0.276 | 0.38 | 0.478 | 0.354 | 0.387 | 1.05 | 1.35 |
| RERF-LC-KJ | 0.995 | 0.923 | 0.984 | 0.934 | 0.979 | 0.781 | 0.953 | 0.73 | 0.919 | 0.92 | 0.799 | 0.989 | 0.401 | 0.449 | 0.369 | 0.517 | 0.73 | 0.848 |
| NCI-H1395 | 0.986 | 1.03 | 0.968 | 1.12 | 0.914 | 0.894 | 0.878 | 0.375 | 0.462 | 0.396 | 0.409 | 0.366 | 0.465 | 0.445 | 0.454 | 0.46 | – | 0.944 |
| LU99A | 0.871 | 0.677 | 0.786 | 0.721 | 0.439 | 0.48 | 0.515 | 0.662 | 0.569 | 0.423 | 0.464 | 0.41 | 0.957 | 0.851 | 0.792 | 0.643 | 0.563 | 0.502 |
| SK-MES-1 | 0.935 | 0.97 | 0.934 | 0.911 | 0.828 | 0.933 | 0.611 | 0.323 | 0.412 | 0.417 | 0.317 | 0.289 | 0.678 | 0.663 | 0.725 | 0.73 | 0.91 | 0.683 |
| NCI-H322M | 0.964 | 0.875 | 0.932 | 1 | 0.829 | – | 0.85 | – | 0.229 | 0.233 | 0.279 | 0.236 | 0.744 | 0.757 | 0.742 | 0.915 | – | 0.629 |
| NCI-H358 | 0.692 | 0.598 | 0.663 | 0.936 | 1.01 | 0.735 | 1.15 | 0.185 | 0.197 | 0.233 | 0.487 | 0.392 | 0.318 | 0.293 | 0.289 | 0.429 | – | 1.01 |
